{"source": "patent US12053479B2", "about": "“Transdermal treatment for erectile dysfunction” (Madera Pharmaceuticals, Inc., priority 2020, dated 2024)", "key": {"[1]": {"assay": "Drug solubility in individual excipients"}, "[2]": {"assay": "In vitro permeation testing (IVPT), diffusion cell", "details": "cumulative amount in receptor solution versus time (FIGS. 2-4)", "excerpt": "With reference to FIG. 1, in vitro skin permeation experiments used a diffusion cell designed to mimic the physiological and anatomical conditions of skin in situ. The diffusion cell included a donor compartment configured to receive the formulation, or solvent system, to be tested. A receptor compartment included a flow path for receptor solution, which was to be analyzed. Dermatomed skin was arranged between the donor compartment and receptor compartment. As such, a formulation comprising the solvent system having the drug is applied to the skin in the donor compartment. A portion of the drug permeated through the skin into the receptor solution, which was analyzed to determine drug concentration at several time periods, including 0.25, 0.5, 1, 1.5 2, 4, 6 and 8 hours. […]\nThe receptor solution was collected and analyzed as discussed. The cumulative amount per cm^2 of phentolamine, papaverine, and prostaglandin permeated into the receptor solution was calculated from drug concentrations measured in the receptor solution over time. The cumulative amount per cm^2 of phentolamine, papaverine, and prostaglandin at the final timepoint was calculated for each replicate. […] Means and standard errors were calculated and reported in figures and tables, including Tables 5 and 6 below."}, "[3]": {"details": "in water, buffer solutions (pH 4 and 7) and glycerol"}}, "note": "Where two headings read alike, the source gives them in different places."}
{"smiles": "COc1ccc(Cc2nccc3cc(OC)c(OC)cc23)cc1OC.Cl", "note": "[Papaverine HCl, papaverine hydrochloride]", "values": [{"measurement": "Saturated solubility", "setting": "solvent system SSAG01, all three drugs combined", "result": 7.58, "unit": "% w/w"}, {"measurement": "Saturated solubility", "setting": "solvent system SSAG01, drug added individually", "result": 6.39, "unit": "% w/w"}, {"measurement": "Saturated solubility", "setting": "solvent system SSAG02, all three drugs combined", "result": 9.44, "unit": "% w/w"}, {"measurement": "Saturated solubility", "setting": "solvent system SSAG02, drug added individually", "result": 7.21, "unit": "% w/w"}, {"measurement": "Saturated solubility", "setting": "upon addition of phentolamine mesylate and prostaglandin E1, span over all solvent systems", "result": "7.58-9.44 % w/w"}, {"measurement": "Solubility (in words)", "setting": "[1]; in ethanol and transcutol P", "result": "poorly soluble"}, {"measurement": "Solubility", "setting": "[1]; [3]", "result": "2-3 % w/w"}, {"measurement": "Solubility (in words)", "setting": "[1]; [3]", "result": "moderately soluble"}, {"measurement": "Amount permeated through the skin, SSAG02 with all of the drugs versus SSAG02 with the drug alone", "setting": "[2]", "result": "much greater amount"}]}
{"smiles": "CCCCC[C@H](O)/C=C/[C@H]1[C@H](O)CC(=O)[C@@H]1CCCCCCC(=O)O", "note": "[Prostaglandin E1]", "values": [{"measurement": "Solubility (in words)", "setting": "[1]; in ethanol and transcutol P", "result": "strongly soluble"}, {"measurement": "Solubility (in words)", "setting": "[1]; [3]", "result": "poorly soluble"}]}
